# Data as given in patent US20240225973A1, “COSMETIC COMPOSITION FOR IMPROVING SENSITIVE SKIN” (LG HOUSEHOLD & HEALTH CARE LTD., priority 2023, published 2024).
# Test system: beta-defensin 2 (human β-defensin 2, hBD-2)
# Assay: beta-defensin 2 synthesis ELISA in cortisol-treated HaCaT cells
# Type: cell-based
# Set-up: change of beta-defensin 2 in skin cells: dose or concentration left out as unconfirmed
# Details: for enhancement efficacy (beta-defensin 2 synthesis): single treatment at 1 ppm
# Procedure: First, HaCaT, which is a human epidermal cell of the outermost layer among skin cells, was cultured using Dulbecco's Modified Eagle's Media (DMEM; Gibco, USA) mixed with 10% fetal bovine serum (FBS; Gibco, USA) and 1% antibiotic antimycotic (Gibco, USA) in a 24-well plate under conditions of 37° C. and 5% CO2. […] […] After 24 hours, the cells were treated with curcumin, taurine, and acetyl hexapeptide-8 at experimental concentrations, and cultured for 24 hours. At this time, curcumin, taurine, and acetyl hexapeptide-8 were treated alone, and the concentration of curcumin was fixed at 0.1 ppm and 1 ppm, and then taurine and acetyl hexapeptide-8 were treated in combination of concentrations, and cultured for 24 hours. 24 hours after treatment with each sample, ELISA was performed to quantify the amount of beta-defensin 2 (human β-defensin 2, hBD-2) protein synthesis. ELISA was performed using the HUMAN BETA DEFENSIN 2 ELISA kit (ALPHA DIAGNOSTIC, USA) and using the cell culture medium according to the kit's manual, and the final protein amount was calculated by measuring absorbance at 400 nm. […] At this time, when the amount thereof increased compared to the decrease due to cortisol, it was interpreted that the synthesis of beta-defensin 2 was increased by the sample. In addition, the synergistic effect between respective active substances that enhance beta-defensin 2 which had been reduced by cortisol was predicted through the Colby formula, and when the actual measured value was greater than the predicted value, it was determined that there was the synergistic effect.
# [1] = Table 4: each substance at 1 ppm, alone or three cotreated, Cortisol (5 μM) = 100
# [2] = single treatment 0.01 ppm, 24 h, HaCaT, cortisol group = 100
# [3] = single treatment 0.1 ppm, 24 h, HaCaT, cortisol group = 100
# [4] = single treatment 1 ppm, 24 h, HaCaT, cortisol group = 100
SMILES,Production amount of beta-defensin 2 (%) [1] [%],Production amount of beta-defensin 2 (%) [2] [%],Production amount of beta-defensin 2 (%) [3] [%],Production amount of beta-defensin 2 (%) [4] [%],"Production amount of beta-defensin 2 (%) (single treatment 5 ppm, 24 h, HaCaT, cortisol group = 100)","Production amount of beta-defensin 2 (%) (single treatment 10 ppm, 24 h, HaCaT, cortisol group = 100)",enhancement efficacy (beta-defensin 2 synthesis),"change of beta-defensin 2 in skin cells (HaCaT, cultured for 24 hours)"
"NCCS(=O)(=O)O [Taurine, 2-aminoethanesulfonic acid]",117.6,100.60,99.90,117.60,87.61,83.06,confirmed,
"C[C@]12CCC(=O)C=C1CC[C@@H]1[C@@H]2[C@@H](O)C[C@@]2(C)[C@H]1CC[C@]2(O)C(=O)CO [cortisol, hydrocortisone, reference compound]",,,,,,,,significantly reduced
"COc1cc(/C=C/C(=O)CC(=O)/C=C/c2ccc(O)c(OC)c2)ccc1O [Curcumin, curcumin]",106.82,96.65,97.92,106.82,,,confirmed,
